Results published in US10189803B2, “Synthesis of therapeutic and diagnostic drugs centered on regioselective and stereoselective ring opening of aziridinium ions” (ILLINOIS INSTITUTE OF TECHNOLOGY, priority 2008, dated 2019).
Values joined by “and” are separate entries in the source; they are usually repeats but may differ in a detail not shown here. Identical values can stand only once. “Also recorded” adds a separate entry of the source.

Legend:
HT29 cells = assay: Antiproliferative activity, MTS assay, HT29 cells; assay type: cell-based, Human
Method: (§1) Cell culture Human cervix HeLa cell line was obtained from ATCC (Rockville, Md.) and cultured in minimum essential medium (MEM) with L-glutamine (2 mM), Earle's BSS and sodium bicarbonate (1.5 g/L), supplemented with 10% fetal bovine serum (FBS), non-essential amino acids (0.1 mM), sodium pyruvate (1 mM) and antibiotic/antimycotic solution in a humidified atmosphere with 5% CO2 at 37° C. […] Lung fibroblast MRC-5 cell line was obtained from ATCC (Rockville, Md.) and cultured in ATCC formulated EMEM, supplemented with 10% fetal bovine serum (FBS) in a humidified atmosphere with 5% CO2 at 37° C.
(§2) Antiproliferative Activity. Cells were seeded onto 96-well plate at density of 2,000 cells for Hela cells or 5,000 cells for HT29 cells or 5,000 cells for MRC-5 per well in 0.1 mL complete medium and allowed to attach for 24 h. Varying concentrations of the test compounds in the final volume of 0.1 mL complete medium were then added in at least five series dilutions and incubated for 72 h. To measure cell proliferation, the Cell Titer 96 aqueous nonreactive cell proliferation assay (Promega Life Sciences, Madison, Wis.) was used according to the manufacturer's instructions. Briefly, MTS (2 mg/mL) and PMS (0.92 mg/ml) were mixed in a ratio of 20:1. An aliquot (20 μL) of the MTS/PMS mixture was added into each well, and the plate was incubated for 3 h at 37° C. Optical absorbance at 490 nm was then recorded with an enzyme-linked immunosorbent assay (ELISA) microtiter plate reader (Biotek). Each experiment was done at least in triplicate. Antiproliferative activity of the test compounds was expressed as the fraction of optical densities of treated the cells relative to the untreated solvent controls.^31 The data were plotted in GraphPad Prizm 3.0. Nonlinear regression analysis was used to determine IC50 values.
(§3) Cell culture. Human cervix HeLa cell line was obtained from ATCC (Rockville, Md.) and cultured in minimum essential medium (MEM) with L-glutamine (2 mM), Earle's BSS and sodium bicarbonate (1.5 g/L), supplemented with 10% fetal bovine serum (FBS), non-essential amino acids (0.1 mM), sodium pyruvate (1 mM) and antibiotic/antimycotic solution in a humidified atmosphere with 5% CO2 at 37° C.
as §2, with “activity.” for “Activity.”, “cells” for “cells or 5,000 cells for MRC-5”, “controls.” for “controls.^31”

Hela cells = assay: Antiproliferative activity, MTS assay, HeLa cells; assay type: cell-based, Human; settings: for IC50: 72 h incubation, MTS; for cytotoxicity in HeLa cells over a series of concentrations (in words): FIG. 18
Method: as §1, §2, §3
as §2, with “activity.” for “Activity.”, “cells” for “cells or 5,000 cells for MRC-5”, “controls.” for “controls.^31”

[1] = In vitro serum stability of 64Cu-labeled ligands in rat serum (radio-TLC); assay type: in vitro ADME; settings: for Purity (serum stability, radio-TLC): 37° C., n=3; for 64Cu dissociated from the complex: in 24 hours; for stability in rat serum (in words): 48 hours
Method: The radiolabeling reactions of the ligands with ^64Cu were performed at elevated temperatures to ensure complete complex formation. At the no-carrier-added (NCA) level, all ligands were successfully labeled with ^64Cu in quantitative radiochemical yields (100%) as determined by radio-TLC. […] The ^64Cu-labeled complexes were freshly prepared for their serum stability evaluation, which was assessed by measuring the transfer of radionuclide from the complex to serum proteins over 24 hours or 48 hours.
In vitro serum stability: To 100 μL of rat serum, 10 μL of each ^64Cu-labeled complex was added (n=3 per complex). DOTA labeled with ^64Cu was used as a positive control. The resulting solutions were incubated at 37° C. in a water-bath. At 1 h, 4 h, 24 h and 48 h after the complex addition to rat serum, the solutions were sampled and analyzed by radio-TLC.

[2] = In vitro serum stability of 177Lu-labeled complexes (radio-TLC, HPLC); assay type: in vitro ADME, mouse; design: Radiolabled Complex, in vitro serum stability (Table 1): unit not given here; settings: for Radiolabled Complex, in vitro serum stability (Table 1): 37° C.
Method: The new ligand DEPA was radiolabeled with ^177Lu and ^205/6Bi (a surrogate of ^212Bi and ^213Bi) and the corresponding radiolabeled complexes were evaluated for in vitro serum stability as described previously. For comparison, DOTA was also radiolabeled with ^177Lu. DEPA and DOTA (0.25 M NH4OAc buffer, pH 4.0) was radiolabeled with ^177Lu at 45° C. for 0.5 h to afford ^177Lu-DEPA (Rf=0.6) and ^177Lu-DOTA (Rf=0.4) in the respective radiochemical yield of 90% and 95% as determined by radio-TLC. DEPA (0.25 M NH4OAc buffer, pH 5.0) was successfully radiolabeled with ^205/6Bi at room temperature for 1 h to afford ^205/6Bi-DEPA in 96% yield (radio-TLC). ^177Lu-DOTA, 177Lu-DEPA, and ^205/6Bi-DEPA formed were purified from unbound ^205/6Bi by ion-exchange chromatography using a Chelex-100 column (1 mL volume bed, 100-200 mesh, Na^+ form, Bio-Rad, Richmond, Calif.) eluted with PBS (pH 7.4). In vitro serum stability of the purified radiolabeled complexes was performed to determine if DEPA or DOTA radiolabeled with ^177Lu or ^205/6Bi remained stable without loss of the radionuclide in human serum. This was assessed by measuring the transfer of radionuclide from the complex to serum proteins. […] However, ˜10% of the radioactivity was released from ^177Lu-DOTA over 4 days.
In vitro serum stability of the radiolabeled metal complexes. An aliquot of 3.7 MBq of the purified ^177Lu-labeled ligands was added to 0.5 mL of mouse serum (Sigma, St. Louis, Mo.) and 0.1% NaN3. The resulting mixture was incubated at 37° C. for 96 h. Aliquots of 2 μL of the resulting mixture were analyzed by radio-TLC and HPLC at different time points, 0, 0.25, 0.5, 1, 2, 4, 6, 24, 48, and 96 h of incubation. The stability of purified ^205/6Bi-DEPA was evaluated in human serum (Gemini Bioproducts, Woodland, Calif.) for 14 days by measuring the transfer of the radionuclide from the complex to serum proteins as monitored by SE-HPLC. Radiolabeled complexes were diluted to an appropriate volume that allowed for preparation of multiple samples containing 5-10 μCi and filter-sterilized using a Millex-GV 0.22 μm filter. 140 μL of this stock solution was then mixed with 1400 μL of sterile normal human serum or saline. Aliquots (200 μL) were drawn and separated into individual tubes for subsequent analysis using aseptic technique. The samples were incubated at 37° C., and at designated intervals, subjected to analysis by SE-HPLC. Samples were loaded onto the HPLC and eluted with PBS, pH 7.4 isocratically at 1 mL/min. […] Radioactivity associated with a transfer to serum proteins generally appeared between ˜4.5-8 min.

[3] = Homo sapiens, HT-29, 72 h incubation

## CC(CCC(=O)Nc1ccc(CC(CN2CCN(CC(=O)O)CCN(CC(=O)O)CC2)NCC(=O)O)cc1)C1CCC2C3CCC4CC(O)CCC4(C)C3CC(O)C12C (stereo not shown) [DCA-NE3TA, [4-Carboxymethyl-7-(2-(carboxymethyl-amino)-3-{4-[4-(3,12-dihydroxy-10,13-dimethylhexadecahydro-cyclopenta[a]phenanthren-17-yl)-pentanoylamino]-phenyl}-propyl)-[1,4,7]triazonan-1-yl]-acetic acid]
HT29 cells; [3]
  IC50: 7.5 ± 0.3 µM
Hela cells
  sensitivity of HeLa cells relative to DTPA: approximately 40 fold
Hela cells; Homo sapiens
  IC50: 6.3 ± 0.1 µM

## O=C(O)CN1CCN(CCCO)CCN(CC(=O)O)CC1.[64Cu] [^64Cu-NBPA]
[1]; incubation time 1 h
  Purity (serum stability, radio-TLC): 99.6 ± 0.7
[1]; incubation time 4 h
  Purity (serum stability, radio-TLC): 97.5 ± 4.4
[1]; incubation time 24 h
  Purity (serum stability, radio-TLC): 70.5 ± 6.5
[1]
  64Cu dissociated from the complex: 29%

## Holo-N-NE3TA: ligand-transferin conjugate (holo) of N-NE3TA-NCS
Hela cells
  IC50: 11.5 ± 0.21 µM

## O=C(O)CN1CCN(CCO)CCN(CC(=O)O)CC1.[64Cu] [^64Cu-NBEA]
[1]; incubation time 1 h
  Purity (serum stability, radio-TLC): 100 ± 0.0
[1]; incubation time 4 h
  Purity (serum stability, radio-TLC): 100 ± 0.0
[1]; incubation time 24 h
  Purity (serum stability, radio-TLC): 45.3 ± 9.8
[1]
  64Cu dissociated from the complex: 54%

## Apo-N-NE3TA: ligand-transferin conjugate (apo) of N-NE3TA-NCS
Hela cells
  IC50: 8.85 ± 1.43 µM

## O=C(O)CN1CCN(CC(=O)O)CCN(CC(Cc2ccc([N+](=O)[O-])cc2)N(CC(=O)O)CC(=O)O)CC1 (stereo not shown) [C-NETA]
HT29 cells; 72 h incubation
  IC50: 45.7 ± 4 µM
Hela cells
  IC50: > 100 µM
  cytotoxicity in HeLa cells over a series of concentrations (in words): virtually no inhibitory activity

## Holo-C-NE3TA: ligand-transferin conjugate (holo) of C-NE3TA-NCS
Hela cells
  IC50: 7.03 ± 0.09 µM

## O=C(O)CNCCN1CCN(CC(=O)O)CCN(CC(=O)O)CC1 [NE3TA, (4-Carboxymethyl-7-[2-(carboxymethyl-amino)-ethyl]-[1,4,7]trizonan-1-yl)-acetic acid]
HT29 cells; [3]
  IC50: 4.7 ± 0.3 µM
Hela cells; Homo sapiens
  IC50: 5.7 ± 0.3 µM

## O=C(O)CN1CCN(CCN(CC(=O)O)Cc2ccccc2)CCN(CC(=O)O)CC1 [Bn-NE3TA]
HT29 cells; 72 h incubation
  IC50: 2.6 ± 0.2 µM
Hela cells
  IC50: 4.4 ± 0.9 µM
  cytotoxicity in HeLa cells over a series of concentrations (in words): highest activity against HeLa cells

## O=C(O)CN1CCN(CCN(CC(=O)O)Cc2ccccc2)CCN(CC(=O)O)CC1.[64Cu] [^64Cu-NE3TA-Bn]
[1]; incubation time 1 h
  Purity (serum stability, radio-TLC): 100 ± 0.0
[1]; incubation time 4 h
  Purity (serum stability, radio-TLC): 100 ± 0.0
[1]; incubation time 24 h
  Purity (serum stability, radio-TLC): 100 ± 0.0
[1]; incubation time 48 h
  Purity (serum stability, radio-TLC): 100 ± 0.0
[1]
  stability in rat serum (in words): no measurable loss of radioactivity

## O=C(O)CNCCN1CCN(CC(=O)O)CCN(CC(=O)O)CC1.[64Cu] [^64Cu-NE3TA]
[1]; incubation time 1 h
  Purity (serum stability, radio-TLC): 100 ± 0.0
[1]; incubation time 4 h
  Purity (serum stability, radio-TLC): 100 ± 0.0
[1]; incubation time 24 h
  Purity (serum stability, radio-TLC): 100 ± 0.0
[1]; incubation time 48 h
  Purity (serum stability, radio-TLC): 100 ± 0.0
[1]
  stability in rat serum (in words): no measurable loss of radioactivity

## O=C([O-])CN1CCN(CC(=O)[O-])CCN(CC(=O)[O-])CCN(CC(=O)[O-])CC1.[177Lu+3].[H+] [^177Lu-DOTA, reference compound]
[2]; over 4 days
  radioactivity released from the complex in serum: ~10% and 11%
[2]; serum, 0 h
  Radiolabled Complex, in vitro serum stability (Table 1): 100
[2]; serum, 0.5 h
  Radiolabled Complex, in vitro serum stability (Table 1): 99.0
[2]; serum, 1 h
  Radiolabled Complex, in vitro serum stability (Table 1): 100.1
[2]; serum, 2 h
  Radiolabled Complex, in vitro serum stability (Table 1): 99.3
[2]; serum, 4 h
  Radiolabled Complex, in vitro serum stability (Table 1): 97.0
[2]; serum, 6 h
  Radiolabled Complex, in vitro serum stability (Table 1): 97.5
[2]; serum, 24 h
  Radiolabled Complex, in vitro serum stability (Table 1): 98.2
[2]; serum, 48 h
  Radiolabled Complex, in vitro serum stability (Table 1): 91.2
[2]; serum, 96 h
  Radiolabled Complex, in vitro serum stability (Table 1): 89.6

## O=C(O)CN1CCN(CCN(CC(=O)O)CC(=O)O)CCN(CC(=O)O)CCN(CC(=O)O)CC1.[177Lu] [^177Lu-DEPA]
[2]; serum, 0 h
  Radiolabled Complex, in vitro serum stability (Table 1): 100
[2]; serum, 0.5 h
  Radiolabled Complex, in vitro serum stability (Table 1): 100
[2]; serum, 1 h
  Radiolabled Complex, in vitro serum stability (Table 1): 100
[2]; serum, 2 h
  Radiolabled Complex, in vitro serum stability (Table 1): 100
[2]; serum, 4 h
  Radiolabled Complex, in vitro serum stability (Table 1): 100
[2]; serum, 6 h
  Radiolabled Complex, in vitro serum stability (Table 1): 100
[2]; serum, 24 h
  Radiolabled Complex, in vitro serum stability (Table 1): 100
[2]; serum, 48 h
  Radiolabled Complex, in vitro serum stability (Table 1): 100
[2]; serum, 96 h
  Radiolabled Complex, in vitro serum stability (Table 1): 100
[2]; serum, up to 96 h
  serum stability of 177Lu complex (in words): remained intact without being dissociated in serum; also recorded: stable in serum
